Laboratory results: article PMC12833730, “Discovery of a First‐in‐Class Covalent Allosteric SHP1 Inhibitor with Immunotherapeutic Activity” (Angewandte Chemie (International Ed. in English), 2025)
Entries after “also recorded” stand apart in the source; their conditions may differ.

Experiments:
FAP1 = molecular target: T1, FAP1 (Homo sapiens, UniProt Q12923); experiment: PTP panel IC50, 60-min preincubation; format: biochemical
T1 construct: FAP1, residues 2124-2485; made in house; host or cells: E. coli BL21(DE3)
T1 sequence (Q12923 2124-2485): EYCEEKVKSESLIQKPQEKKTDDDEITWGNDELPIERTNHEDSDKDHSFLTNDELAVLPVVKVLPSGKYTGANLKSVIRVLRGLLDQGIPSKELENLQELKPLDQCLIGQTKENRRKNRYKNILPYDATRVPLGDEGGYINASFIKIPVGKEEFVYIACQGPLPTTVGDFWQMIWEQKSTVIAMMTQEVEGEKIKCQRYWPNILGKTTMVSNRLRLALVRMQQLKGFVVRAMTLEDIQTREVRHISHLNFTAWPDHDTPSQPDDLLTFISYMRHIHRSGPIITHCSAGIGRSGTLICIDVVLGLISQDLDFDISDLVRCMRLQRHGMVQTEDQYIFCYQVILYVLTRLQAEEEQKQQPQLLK
Text: (§1) Building on the results from the SAR “by‐catalog” study, the following medicinal chemistry effort was prioritized on a systematic survey of the central phenyl scaffold, the sulfonamide linker, and the distal aryl moiety with the goal of a multiparameter optimization of potency and selectivity for SHP1 inhibition as well as drug‐like properties such as aqueous solubility and cell permeability. Additionally, given the crucial requirement for targeted covalent inhibitors to maintain tempered reactivity that enables selective target engagement and reduces cross‐reactivity to by‐standing nucleophiles in the cellular milieu,^[ [74], [75] ^] the medicinal chemistry campaign also sought to lower SHP1 covalent inhibitor reactivity with GSH and cytotoxicity. Careful assessment and evaluation of the SAR and other desirable drug‐like attributes of all synthesized molecules led to the identification of M029 (Figure 2a and Figure S2D, manuscript in preparation). […] To determine the selectivity of M029 for SHP1, we measured the IC50 value for M029‐mediated inhibition of a number of PTPs after a 60‐min preincubation. […] To assess potential direct interactions between SHP1 and M029, we utilized the thermal shift assay to measure the thermal stability of SHP1 in the presence of M029. […] To corroborate the covalent interaction between SHP1 and M029, a single SHP1‐M029 covalent adduct was observed by electrospray protein mass spectrometry when SHP1 was incubated with M029 (Figure 2e). […] This is in line with the expectation that SHP1 inactivation by M029 occurs through nucleophilic substitution of the chlorine from the chloroacetamide warhead.
(§2) To further confirm the time-dependent inhibition and determine the IC50 of acquired hits, repurchased compounds from Enamine were serially diluted in a 96-well plate, followed by the addition of proteins at 200 nM. After 10-minute and 60-minute preincubation, 2 µL of the mixture was transferred into 100 µM 6,8-Difluoro-4-Methylumbelliferyl Phosphate (DiFMUP, Invitrogen, cat# D6567) at a final volume of 200 µL. The reaction was allowed to proceed for 5 minutes and quenched by the addition of 40 µl of a 160 µM solution of bpV(Phen) (Sigma-Aldrich, cat# SML0889). The fluorescence signal was measured using a CLARIOstar Plus Microplate Spectrophotometer (BMG Labtech) using excitation and emission wavelengths of 340 nm and 450 nm, respectively. Data were fitted using Prism GraphPad 10.1.1.

Ssu72 = Ssu72 (Homo sapiens, UniProt Q9NP77); experiment: PTP panel IC50, 60-min preincubation; format: biochemical
Ssu72, sequence (Q9NP77 whole entry, species assumed): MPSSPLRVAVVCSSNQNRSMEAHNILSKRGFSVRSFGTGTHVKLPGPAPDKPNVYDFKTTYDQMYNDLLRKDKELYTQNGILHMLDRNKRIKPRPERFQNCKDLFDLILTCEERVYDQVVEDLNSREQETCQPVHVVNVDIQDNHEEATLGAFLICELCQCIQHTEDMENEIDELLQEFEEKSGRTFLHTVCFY
Text: as §1, §2

LMPTP = molecular target: T2, LMPTP (Homo sapiens, UniProt P24666); experiment: PTP panel IC50, 60-min preincubation; format: biochemical
T2 construct: LMWPTP, residues 1-158; made in house; host or cells: E. coli BL21(DE3)
T2 sequence (P24666 whole entry, the tested form may be a part): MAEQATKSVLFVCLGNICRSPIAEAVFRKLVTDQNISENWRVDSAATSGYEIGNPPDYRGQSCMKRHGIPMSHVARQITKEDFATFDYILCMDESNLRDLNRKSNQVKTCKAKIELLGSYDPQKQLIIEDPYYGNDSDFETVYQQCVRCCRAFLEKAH
Text: as §1, §2

CDC14A = molecular target: T3, CDC14A (Homo sapiens, UniProt Q9UNH5); experiment: PTP panel IC50, 60-min preincubation; format: biochemical
T3 construct: CDC14A, residues 1-413; made in house; host or cells: E. coli BL21(DE3)
T3 sequence (Q9UNH5 1-413, species assumed): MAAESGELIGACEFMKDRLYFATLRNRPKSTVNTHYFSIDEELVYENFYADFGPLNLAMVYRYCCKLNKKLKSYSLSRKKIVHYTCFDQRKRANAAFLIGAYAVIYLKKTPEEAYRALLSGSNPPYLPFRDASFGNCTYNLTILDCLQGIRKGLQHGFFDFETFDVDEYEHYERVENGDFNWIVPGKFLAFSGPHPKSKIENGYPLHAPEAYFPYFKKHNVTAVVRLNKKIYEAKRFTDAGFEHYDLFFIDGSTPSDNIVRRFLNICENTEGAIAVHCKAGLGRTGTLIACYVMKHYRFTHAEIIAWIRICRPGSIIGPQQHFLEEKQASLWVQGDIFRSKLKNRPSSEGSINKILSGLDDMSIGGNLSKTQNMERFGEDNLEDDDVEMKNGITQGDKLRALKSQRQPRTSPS
Text: as §1, §2

MKP5 = molecular target: T4, MKP5 (Homo sapiens, UniProt Q9Y6W6); experiment: PTP panel IC50, 60-min preincubation; format: biochemical
T4 construct: MKP5, residues 320-647; made in house; host or cells: E. coli BL21(DE3)
T4 sequence (Q9Y6W6 320-467 limits assumed, species assumed): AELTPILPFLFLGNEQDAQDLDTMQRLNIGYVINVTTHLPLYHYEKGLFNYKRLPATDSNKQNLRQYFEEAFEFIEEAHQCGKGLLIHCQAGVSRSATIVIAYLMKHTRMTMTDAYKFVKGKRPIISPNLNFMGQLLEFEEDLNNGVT
Text: as §1, §2

PEST = molecular target: T5, PEST (Homo sapiens, UniProt Q05209); experiment: PTP panel IC50, 60-min preincubation; format: biochemical
T5 construct: PTP-PEST, residues 5-304; made in house; host or cells: E. coli BL21(DE3)
T5 sequence (Q05209 5-304): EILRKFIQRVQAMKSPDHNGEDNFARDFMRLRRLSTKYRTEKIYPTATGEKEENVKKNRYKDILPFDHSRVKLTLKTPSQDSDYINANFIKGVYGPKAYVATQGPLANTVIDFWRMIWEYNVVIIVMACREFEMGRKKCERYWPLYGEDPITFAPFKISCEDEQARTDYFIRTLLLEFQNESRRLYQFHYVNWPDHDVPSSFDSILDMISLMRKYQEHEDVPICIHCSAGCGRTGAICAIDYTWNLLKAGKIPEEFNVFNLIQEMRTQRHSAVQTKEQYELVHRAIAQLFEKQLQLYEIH
Text: as §1, §2

HePTP = molecular target: T6, HePTP (Homo sapiens, UniProt P35236); experiment: PTP panel IC50, 60-min preincubation; format: biochemical
T6 construct: HePTP, residues 22-360; made in house; host or cells: E. coli BL21(DE3)
T6 sequence (P35236 22-360): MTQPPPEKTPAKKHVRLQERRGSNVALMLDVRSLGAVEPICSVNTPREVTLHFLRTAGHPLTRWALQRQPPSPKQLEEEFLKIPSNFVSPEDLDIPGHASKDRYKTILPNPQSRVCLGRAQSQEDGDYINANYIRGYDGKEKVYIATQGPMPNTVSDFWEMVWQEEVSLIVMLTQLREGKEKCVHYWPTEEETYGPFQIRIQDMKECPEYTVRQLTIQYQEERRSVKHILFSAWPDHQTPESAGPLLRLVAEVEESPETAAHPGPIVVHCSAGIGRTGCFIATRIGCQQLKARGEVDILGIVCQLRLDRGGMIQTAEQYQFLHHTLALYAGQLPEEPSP
Text: as §1, §2

PP5 = PP5 (Homo sapiens, UniProt P53041); experiment: PTP panel IC50, 60-min preincubation; format: biochemical
PP5, sequence (P53041 whole entry): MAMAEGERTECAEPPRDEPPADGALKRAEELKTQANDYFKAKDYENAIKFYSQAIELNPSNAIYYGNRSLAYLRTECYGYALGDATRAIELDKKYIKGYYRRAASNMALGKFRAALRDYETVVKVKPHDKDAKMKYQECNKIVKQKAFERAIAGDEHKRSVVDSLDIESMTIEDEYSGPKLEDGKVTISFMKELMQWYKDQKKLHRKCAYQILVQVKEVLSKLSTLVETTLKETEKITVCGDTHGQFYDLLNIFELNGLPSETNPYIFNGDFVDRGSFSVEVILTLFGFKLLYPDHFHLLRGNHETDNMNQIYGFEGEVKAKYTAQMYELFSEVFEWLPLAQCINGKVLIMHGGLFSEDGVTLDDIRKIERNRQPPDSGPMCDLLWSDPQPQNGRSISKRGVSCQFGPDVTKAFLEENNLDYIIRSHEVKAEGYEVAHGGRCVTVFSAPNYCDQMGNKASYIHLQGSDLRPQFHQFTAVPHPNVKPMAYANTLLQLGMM
Text: as §1, §2

TCPTP = molecular target: T7, TCPTP (Homo sapiens, UniProt P17706); experiment: PTP panel IC50, 60-min preincubation; format: biochemical
T7 construct: TC-PTP, residues 1-387; made in house; host or cells: E. coli BL21(DE3)
T7 sequence (P17706 1-387 isoform P17706-2): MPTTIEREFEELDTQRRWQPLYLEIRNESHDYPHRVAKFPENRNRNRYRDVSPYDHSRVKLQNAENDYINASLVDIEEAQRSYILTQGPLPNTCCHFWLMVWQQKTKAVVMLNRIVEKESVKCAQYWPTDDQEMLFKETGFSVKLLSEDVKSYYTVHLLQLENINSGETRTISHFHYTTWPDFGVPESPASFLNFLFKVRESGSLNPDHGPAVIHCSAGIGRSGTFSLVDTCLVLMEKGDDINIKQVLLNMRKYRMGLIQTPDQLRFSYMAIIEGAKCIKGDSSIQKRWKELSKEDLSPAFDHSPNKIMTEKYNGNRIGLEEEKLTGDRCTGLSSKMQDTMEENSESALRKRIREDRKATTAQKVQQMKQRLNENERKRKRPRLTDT
Text: as §1, §2

VHR = VHR (Homo sapiens, UniProt P51452); experiment: PTP panel IC50, 60-min preincubation; format: biochemical
VHR, sequence (P51452 whole entry, species assumed): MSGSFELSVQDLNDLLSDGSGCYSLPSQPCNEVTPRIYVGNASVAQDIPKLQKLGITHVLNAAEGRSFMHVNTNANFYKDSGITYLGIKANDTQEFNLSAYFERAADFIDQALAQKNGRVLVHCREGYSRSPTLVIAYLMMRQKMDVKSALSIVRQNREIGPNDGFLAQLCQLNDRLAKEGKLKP
Text: as §1, §2

STEP = molecular target: T8, STEP (Homo sapiens, UniProt P54829); experiment: PTP panel IC50, 60-min preincubation; format: biochemical
T8 construct: STEP, residues 258-539; made in house; host or cells: E. coli BL21(DE3)
T8 sequence (P54829 282-563, species assumed): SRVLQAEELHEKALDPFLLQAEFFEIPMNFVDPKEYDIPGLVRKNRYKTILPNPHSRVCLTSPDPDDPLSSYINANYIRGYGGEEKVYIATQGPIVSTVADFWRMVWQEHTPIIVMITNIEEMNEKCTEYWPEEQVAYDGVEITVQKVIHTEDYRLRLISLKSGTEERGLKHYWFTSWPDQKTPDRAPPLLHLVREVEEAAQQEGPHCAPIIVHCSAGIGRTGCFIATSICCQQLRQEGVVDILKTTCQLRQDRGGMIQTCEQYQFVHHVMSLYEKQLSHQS
Text: as §1, §2

PEZ = PEZ (Homo sapiens, UniProt Q15678); experiment: PTP panel IC50, 60-min preincubation; format: biochemical
PEZ, sequence (Q15678 whole entry, species assumed): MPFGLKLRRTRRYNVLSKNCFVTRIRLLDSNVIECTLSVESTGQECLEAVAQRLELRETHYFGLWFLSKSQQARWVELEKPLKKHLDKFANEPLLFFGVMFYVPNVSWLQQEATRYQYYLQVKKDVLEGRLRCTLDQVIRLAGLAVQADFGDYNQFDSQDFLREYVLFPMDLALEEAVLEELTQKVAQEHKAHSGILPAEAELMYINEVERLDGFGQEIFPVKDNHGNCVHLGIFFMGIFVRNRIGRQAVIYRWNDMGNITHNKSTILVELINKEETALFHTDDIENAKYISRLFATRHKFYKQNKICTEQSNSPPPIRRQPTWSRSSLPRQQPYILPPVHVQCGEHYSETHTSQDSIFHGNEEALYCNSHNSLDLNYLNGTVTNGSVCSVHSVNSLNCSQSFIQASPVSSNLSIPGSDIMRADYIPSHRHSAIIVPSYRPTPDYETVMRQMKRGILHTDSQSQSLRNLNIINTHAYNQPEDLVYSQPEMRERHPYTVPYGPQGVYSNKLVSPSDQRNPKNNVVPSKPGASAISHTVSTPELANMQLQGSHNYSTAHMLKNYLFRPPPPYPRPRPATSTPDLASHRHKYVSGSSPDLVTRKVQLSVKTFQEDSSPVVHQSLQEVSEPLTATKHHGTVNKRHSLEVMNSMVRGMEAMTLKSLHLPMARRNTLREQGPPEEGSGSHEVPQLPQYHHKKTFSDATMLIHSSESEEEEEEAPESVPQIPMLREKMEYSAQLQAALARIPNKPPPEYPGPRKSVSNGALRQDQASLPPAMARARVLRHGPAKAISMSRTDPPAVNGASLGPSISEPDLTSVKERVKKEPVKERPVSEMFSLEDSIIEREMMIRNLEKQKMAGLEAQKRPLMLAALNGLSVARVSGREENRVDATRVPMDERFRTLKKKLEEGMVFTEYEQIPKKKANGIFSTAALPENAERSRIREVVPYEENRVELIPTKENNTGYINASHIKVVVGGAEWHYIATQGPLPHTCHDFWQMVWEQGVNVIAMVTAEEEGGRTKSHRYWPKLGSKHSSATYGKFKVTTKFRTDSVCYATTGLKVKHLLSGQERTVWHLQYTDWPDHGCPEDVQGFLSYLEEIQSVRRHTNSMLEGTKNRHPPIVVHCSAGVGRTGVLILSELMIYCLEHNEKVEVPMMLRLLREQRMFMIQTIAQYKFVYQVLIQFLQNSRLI
Text: as §1, §2

IL-2 in Jurkat T cells = experiment: IL-2 mRNA / production; format: cell-based; conditions: dose response
Protocol: Supernatants from lysed cells were reduced, treated with iodoacetamide to cap thiol residues, and digested by trypsin for bottom‐up proteomics analysis. […] LCK is the direct substrate of SHP1 and ERK1/2, and PLCγ is the downstream effector protein of LCK‐mediated TCR signaling. […] Statistical analyses were performed with Graphpad Prism software 10.4.2 through the one‐way ANOVA test using Turkey post‐hoc comparison. ****p < 0.0001 was considered significant.
To further confirm M029 cellular target engagement, we investigated the effect of M029 on T cell function. SHP1 plays a negative role in T cells, and deletion of SHP1 in T cells lowers the activation threshold and enhances antitumor immunity.^[ [30], [31], [32], [33] ^] Mechanistically, SHP1 attenuates T cell receptor (TCR) signaling via dephosphorylation of the lymphocyte‐specific protein tyrosine kinase LCK.^[ [31], [84], [85], [86] ^] T cell activation leads to increased expression and secretion of interleukin 2 (IL‐2)^[ [87] ^] while the removal of SHP1 in T cells enhances IL‐2 production, cell proliferation, and cytolysis capacity.^[ [30], [32] ^] Accordingly, we sought to assess the impact of targeting SHP1 with M029 on TCR‐LCK signaling and T cell activation. […] M029 also dose‐dependently promoted IL‐2 production (Figure 4c). […] These findings corroborate that the observed increase in LCK phosphorylation and its downstream signaling indeed resulted from SHP1 inhibition by M029.

## N#Cc1ccsc1NS(=O)(=O)c1ccc(NC(=O)CCl)cc1 [M029, 2-Chloro-N-(4-(N-(3-cyanothiophen-2-yl)sulfamoyl)phenyl)acetamide]
FAP1
  IC50: > 200 µM
Ssu72
  IC50: > 200 µM
LMPTP
  IC50: > 200 µM
CDC14A
  IC50: > 200 µM
MKP5
  IC50: 165 ± 20.1 µM
PEST
  IC50: > 200 µM
HePTP
  IC50: > 200 µM
PP5
  IC50: > 200 µM
TCPTP
  IC50: 150 ± 31.1 µM
VHR
  IC50: 180 ± 46.8 µM
STEP
  IC50: > 200 µM
PEZ
  IC50: 172 ± 19.3 µM
IL-2 in Jurkat T cells
  IL-2 production / relative IL-2 mRNA level: increased; also recorded: promoted
